Source: patent publication US6303596A, “Use of taurolidine for treatment of leukemias” (priority 2000, dated 2001)

Legend:
MM6 cells = experiment: trypan blue exclusion, MM6; format: cell-based, human
Procedure: FIG. 4A and FIG. 4B are graphs depicting cell viability and growth rates following taurolidine treatment as determined by assay procedures. MM6 cells were treated with taurolidine as described in FIG. 3. After aliquots were collected for the lactate dehydrogenase (LDH) assay, the remainder of the culture was rinsed in Hank's balanced salt solution (HBSS) and resuspended in RPMI+10% BCS without taurolidine. Counts of trypan blue-negative cells represented in FIG. 4A and total cell number represented in FIG. 4B were recorded daily thereafter (with the measurement at Day 1 being made immediately after the four hour taurolidine treatment). Conditions were no treatment (open squares); 50 μg/ml taurolidine (closed squares); 25 μg/ml taurolidine (open circles); and vehicle alone (closed circles). Cells were subcultured when they reached a concentration of 6×10^5 cells/ml. Data are mean±SEM of three experiments.
(§1) FIGS. 5A and 5B depict cell viability and growth rates for MM6 cell line following taurolidine treatment, in terms of % trypan blue negative cells and % cell number, respectively. Cells were treated with various concentrations of taurolidine for 4 hours in AIM-V+0.01% BCS. After aliquots were collected for LDH assay, the remainder of the culture was rinsed in HBSS and resuspended in RPMI+10% BCS without taurolidine. Counts of trypan blue-negative cells (FIG. 5A), and total cell number (FIG. 5B), were recorded daily thereafter (with the measurement at Day 1 being made immediately after the 4 hour taurolidine treatment). […] Doubling times were determined under each condition, and expressed as a percentage of the rate of doubling of untreated cells. […]
(§2) In these experiments, integrity of cell membranes following taurolidine treatment was assessed by exclusion of trypan blue and by measuring the release of LDH in MM6, K-562, HL-60, and REH cells. […] A parallel aliquot of cells was lysed by three cycles of freeze/thaw and the quantity of LDH released was taken to be 100%. […]

REH cells = experiment: trypan blue exclusion, REH; format: cell-based, human; settings: 25 μg/ml taurolidine, versus MM6, K562, Jurkat
Procedure: as §1, with “8A” for “5A”, “8B” for “5B”, “REH” for “MM6”, “8A),” for “5A),”, “8B),” for “5B),”
as §2
HL-60 cells treated with 50 μl taurolidine. In these samples, LDH present in the culture medium was 8.3±2.3% of that released by completely lysed cells, compared with 2.3±0.8% measured in control cultures. […]

SMILES: O=S1(=O)CCN(CN2CCS(=O)(=O)NC2)CN1 [taurolidine, 4,4'-methylenebis(perhydro-1,2,4-thiadiazin 1,1-dioxide)]
- cytotoxicity at 50 µg/mL (MM6 cells; Homo sapiens, MM6, 50 μg/ml taurolidine for 4 h, untreated and vehicle 5%, read-out: trypan blue-positive cells on the day following treatment (Day 2)): 65%
- trypan blue staining after treatment (MM6 cells; MM6, 25 μg/ml taurolidine): did not show an increase in trypan blue staining
- trypan blue exclusion immediately after treatment (Day 1) (MM6 cells; MM6, taurolidine-treated 4 h, versus control): equally able to exclude trypan blue
- trypan blue staining after treatment, sensitivity (REH cells): more sensitive
